The text below walks through data of patent US6365407B1, “Culture medium composition useful for induction and proliferation of Taxus calli” (Council of Scientific & Industrial Research, priority 2001, dated 2002).

Common to all, as to type: cell-based, Himalayan Yew
For assay [1], the system named is callus tissues of Taxus baccata ssp. Wallichiana Zucc. Pilg. In words: Growth of callus tissues on Picloram supplemented media. Conditions: compared to media supplemented with other auxins reported earlier in the literature. The text has this: (§1) Thus the combination of the modified medium of the present invention with Picloram, Sucrose, Phytagel and Antioxidants is novel and conducive for good callus growth and Taxane production in vitro. The details are described herewith. The present invention also provides a process for the enhanced production of taxol and/or taxane class of molecules in the said callus cultures which comprises inoculating any plant part of the Himalayan yew in the said culture medium for a period of 30 to 60 days in dark and at a temperature ranging between 24-26° C., to obtain the undifferentiated mass of callus culture, extracting the product by conventional solvent extraction methods and analyzing the compounds by HPLC. The stems, needles and seeds (for excision of embryos and endosperms) derived from mature trees of Taxus baccata ssp. Wallichiana Zucc. Pilg., Himalayan Yew were first washed in soap water for five min. followed by 95% ethanol treatment for one min. The alcohol was washed off with four washes of double distilled water. Surface sterilization was done with 0.1% HgCl2 for 10 min. under vacuum followed by six washes with sterile distilled water. Following this, the explants were inoculated aseptically in pre-sterilized plastic dishes (55-mm diameter) containing the medium of the present invention. The medium was prepared by mixing constituents mentioned in Tables 1 and 2. […]

The subject of assay [2] is callus lines of Taxus baccata ssp. Wallichiana Zucc. Pilg. In words: Taxane/taxol production in callus cultures, HPLC analysis. From the text:
Thus the combination of the modified medium of the present invention with Picloram, Sucrose, Phytagel and Antioxidants is novel and conducive for good callus growth and Taxane production in vitro. The details are described herewith. The present invention also provides a process for the enhanced production of taxol and/or taxane class of molecules in the said callus cultures which comprises inoculating any plant part of the Himalayan yew in the said culture medium for a period of 30 to 60 days in dark and at a temperature ranging between 24-26° C., to obtain the undifferentiated mass of callus culture, extracting the product by conventional solvent extraction methods and analyzing the compounds by HPLC. The stems, needles and seeds (for excision of embryos and endosperms) derived from mature trees of Taxus baccata ssp. Wallichiana Zucc. Pilg., Himalayan Yew were first washed in soap water for five min. followed by 95% ethanol treatment for one min. The alcohol was washed off with four washes of double distilled water. Surface sterilization was done with 0.1% HgCl2 for 10 min. under vacuum followed by six washes with sterile distilled water. Following this, the explants were inoculated aseptically in pre-sterilized plastic dishes (55-mm diameter) containing the medium of the present invention.
The culture medium and method described in the present invention was tested on ex-plants of a number of matures trees (80-100 year old) collected from the Himalayas. The present protocol is applicable to all the ex-plants derived from all these trees of varying ages and genotypes. A series of callus lines were initiated and currently various callus lines of different ages produce the desirable taxanes. A number of callus lines of different ages and derived from diverse parent trees were analyzed by HPLC for detection of taxane class of molecules. […] For each of the callus lines, extractions were performed at least on three different occasions and duplicate HPLC injections were made on separate days to check for the reproducibility of the results.

For assay [3], the system named is ex-plants of Taxus baccata ssp. Wallichiana Zucc. Pilg. Put plainly: Callus induction from ex-plants of mature trees. The note with it: with or without antioxidants.
Excerpt: as §1

SMILES strings stand for the structures.

`Nc1c(Cl)c(Cl)nc(C(=O)O)c1Cl` [Picloram]: the “enhanced growth rate of callus tissues” value in assay [1] was 1.5-2.0 times. Moreover, the “taxol content of callus” value is given as 190-300 μg taxol/g dry weight in assay [2] (0.5-2 mg.l^-1 picloram, callus lines derived from needles of tree nos. 2, 6 and 7); 500-590 μg taxol/g dry weight in assay [2] (4-6 mg.l^-1 picloram, callus line 6 derived from needles). Further, the “increase of taxol content in vitro than in vivo material” value in assay [2] (0.5-2 mg.l^-1 picloram, needles 0.934 μg taxol/g dry weight) lay within 203 to 321 times. Also, in assay [2] (4-6 mg.l^-1 picloram, callus line 6, needles 0.0941 μg taxol/g dry weight), the “increase of taxol content compared to the in vivo material” value is 5300-6200 times. Besides, the “enhanced Taxane production” value in assay [2] (calli grown in Picloram supplemented media, compared to media supplemented with other auxins) was 2.0-5.4 times. The “Taxol production relative to in vivo needle tissues” value in assay [2] (highest producer callus) is listed as around 5000 times. Besides, the “Callus formation observed in ex-plants” value in assay [3] (0.5-2 mg.l^-1 picloram, tree nos. 2, 6 and 7) was 90%; in assay [3] (4-6 mg.l^-1 picloram, tree nos. 1, 3 and 4), 90%.
